Results from ChEMBL document CHEMBL1158735, “Manoyl oxide diterpenoids from Grindelia scorzonerifolia” (2005).
≈ marks a conversion by molar mass, not a printed value.

Assays:
Type in all cases: functional
Staphylococcus aureus [1] = assay: Antibacterial activity against methicillin-resistant Staphylococcus aureus F7 after 24 hrs by broth microdilution method
Staphylococcus aureus [2] = assay: Antibacterial activity against Staphylococcus aureus ATCC 6538P after 24 hrs by broth microdilution method
Spodoptera frugiperda [3] = assay: Effect on feeding preference of third instar larvae of Spodoptera frugiperda assessed as food consumption at 100 ppm administered through larval diet by feeding election test relative to control
Spodoptera frugiperda [4] = assay: Insecticidal activity against third instar larvae of Spodoptera frugiperda assessed as malformation and mortality at 100 ppm administered through larval diet

Q: Which results are given for `C=C[C@@]1(C)CC[C@@H]2[C@@]3(C)CCC[C@@](C)(CO[C@@H]4OC[C@H](O)[C@H](O)[C@H]4O)[C@@H]3CC[C@@]2(C)O1`?
A: MIC (Staphylococcus aureus [1]): 1250 µg/mL (≈ 2.85 mM); MIC (Staphylococcus aureus [2]): 2000 µg/mL (≈ 4.56 mM); Activity (Spodoptera frugiperda [3]): 1; Activity (Spodoptera frugiperda [4]): 80%
